Source: patent publication US10898592B2, “Compositions and methods for reducing the risk of post-imaging pancreatitis” (University Of Pittsburgh—Of The Commonwealth System Of …, priority 2015, dated 2021)
Entries after “also recorded” stand apart in the source; their conditions may differ.

Legend:
NF-κB = experiment: NF-κB-luciferase activity assay, AR42J cells; type: cell-based; details: for effect on RC-induced NF-κB-luciferase levels: U73122 5 μM, 2-APB 100 μM, BAPTA 64 μM
Protocol: NF-κB-luciferase activity assay. AR42J cells were differentiated towards an acinar phenotype by administering dexamethasone (100 nM) for 48-72 hr^17. AR42J cells were infected with Ad-NF-κB luciferase 16 h prior to stimulation using a previously described method^12. Following a wash with DMEM/F12 medium, acinar cells were evenly distributed in a 48-well plate and incubated for 30 min at 37° C. They were incubated with RC at varying concentrations and times. NF-κB-luciferase was measured using a commercially available luciferase assay (Promega, Madison, Wis.). Briefly, cells were spun at 1,000 rpm for 5 min, washed with PBS, and lysed using reporter lysis 5× buffer (Promega, catalog no. E397A). Samples were vortexed and spun at 12,000×g for 2 min. The supernatant was plated, and luminescence was measured using a Synergy H1 plate reader (BioTek, Winooski, Vt.) and normalized to total […].

primary acinar cells = experiment: Cell necrosis assay (propidium iodide uptake), primary acinar cells; type: cell-based, mouse; details: for effect on RC (12%)-induced acinar cell injury (PI uptake): 6 hr incubation, U73122 5 μM, 2-APB 100 μM, BAPTA 64 μM, IKK-2 20 μM, FK506 24 μM, CsA 16 μM
Protocol: Cell necrosis assay. Acinar cells were incubated in a 48-well plate with 50 μg/ml of propidium iodide (PI) for 30 min prior to addition of RC. Fluorescence was measured at 536 nm excitation and 617 nm emission wavelengths over time a time course of up to 6 hr. Fluorescence was measured after cell lysis with 0.5% Triton-X 100 was used to normalize the results relative to total DNA.

[1] = test system: calcineurin (NFAT-luciferase); experiment: NFAT-luciferase activity assay, AR42J cells; type: cell-based; details: for effect on RC (6%)-induced NFAT-luciferase activity: pretreatment, FK506 24 μM, CsA 16 μM, U73122 5 μM, 2-APB 100 μM, BAPTA 64 μM
Protocol: (§1) NFAT-luciferase activity assay. Acinar cells were infected with Ad-NFAT-luciferase following a previously described procedure^10,15,16. The construct includes a luciferase gene placed downstream of an IL-4 promoter which contains nine tandem NFAT binding sites^10. Acinar cells were incubated with the NFAT-driven luciferase adenovirus for 1.5 hr prior to stimulation. All of the stated inhibitors were added for 30 min prior to stimulation with RC. NFAT-luciferase was measured using the luciferase assay system. Briefly, cells were spun at 1,000 rpm for 5 min, washed with PBS, and lysed using reporter lysis 5× buffer (Promega #E397A, Madison, Wis.). Samples were vortexed and spun at 12,000 g for 2 min. Supernatant was plated, and luminescence was measured using a Synergy H1 plate reader (BioTek, Winooski, Vt.) and normalized to total protein.

AR42J cells = experiment: Ca^2+ signals (Fluo-4AM) in AR42J cells; type: cell-based; details: U73122 5 μM; 2-APB 100 μM
[2] = test system: calcineurin (NFAT-luciferase); experiment: NFAT-luciferase activity assay (calcineurin activation), mouse primary acinar cells; type: cell-based; details: 2-APB 100 μM, 30 min pre-treatment; RC 9%
Protocol: as §1

[3] = high-affinity Ca^2+-sensing dye (Invitrogen); cited from earlier work
[4] = test system: IL-6, GADD45B, IL-1β gene expression; experiment: Real-time PCR of pancreatic head (IL-6, GADD45B, IL-1β); type: in vivo, mouse; details: RC exposure
Protocol: RNA extraction from whole pancreas and real-time PCR. Total RNA from the pancreatic head was obtained by homogenizing 40 mg of tissue in 2 ml of TRIzol reagent (Life Technologies; Grand Island N.Y.) at 4° C. and immediately flash frozen in liquid nitrogen. Samples were thawed on ice and centrifuged at 12,000×g for 10 min at 4° C. The supernatant was diluted with 200 μl of chloroform and centrifuged at 12,000×g for 15 min at 4° C. The upper aqueous phase was treated with 0.5 ml of isopropanol and centrifuged at 10,000×g for 10 min at 4° C. The pellet was resuspended with 150 μl of 75% ethanol and centrifuged at 7500×g for 5 min at 4° C. The pellet was air-dried and dissolved in 100 μl of nuclease-free water. Total RNA samples were used to generate cDNA using the iScript Advanced cDNA synthesis Kit (Bio Rad; Hercules, Calif.).
Quantitative real-time PCR (rtPCR) was performed to determine the relative expression of the cytokines IL-6 and IL-1β as well as the cell growth arrest and DNA-damage inducible gene GADD45B. The primer pairs for each as well as a GAPDH control were obtained as part of the PrimePCR-PreAMP SYBR Green Assay (Bio Rad; unique assay ID #qMmuCEP0054186, qMmuCID0005641, qMmuCEP0039581). rtPCR reactions were carried out in 20 μl volume reactions using the SsoAdvanced Universal Supermix SYBR Green system (Bio Rad). The reactions contained 1× SsoAdvanced Universal SYBR Green Supermix, 300 nM forward Primer, 300 nM reverse primer and 100 ng cDNA. rtPCR conditions were 95° C. for 10 sec and 60° C. for 30 sec for 35 cycles on a Bio Rad CFX96 Touch thermocycler (Bio Rad). Results for the expression of mRNA were normalized to expression of 18S rRNA and are represented relative to expression levels for each of the control groups.

[5] = test system: mouse pancreatic acinar cells; experiment: Ca^2+ signals (Fluo-4AM) in mouse pancreatic acinar cells; type: cell-based; details: RC 25% and 33%
Protocol: Detection and analysis of cellular Ca^2+ signals from mouse and human acini. Acinar cells were loaded at room temperature with the high-affinity Ca^2+-sensing dye Fluo-4AM (Kd=300 nM; Invitrogen). Acinar cells were plated on acid-washed glass coverslips and then mounted on a perifusion chamber. Thereupon, they were stimulated at room temperature with varying concentrations of RC (17-50%) diluted in HEPES buffer. Carbachol (1 mM) was given at the end of each experiment to confirm that the cells were intact and could mobilize intracellular Ca^2+ stores. A Zeiss LSM710 laser scanning confocal microscope was used with a 20×, 1.4 numerical aperture objective. The dye was excited at 488 nm wavelength, and emission signals of >515 nm were collected every 2 sec. Fluorescence from individual acinar cells was recorded. Analysis of recordings was performed using ImageJ software (NIH, Bethesda, Md.), and mean fluorescence over time in each region was graphed.
Preparation of mouse pancreatic acini for Ca^2+ imaging. Groups of pancreatic acinar cells were isolated as previously described^26,69, with minor modifications. […]

pancreatic acinar cells = experiment: ATP level measurements in pancreatic acinar cells; type: cell-based, mouse; details: RC, concentration dependent
Protocol: ATP level measurements. Following isolation, pancreatic acinar cells were cultured in DMEM/F12 Medium (0.5 ml/well of a 48-well plate) at 37° C. water bath and treated with RC±FK506. Cells were collected at indicated time points and lysed in 100 μl lysis buffer (100 mM Tris pH 7.75, 4 mM EDTA). ATP levels were measured from 20 μl aliquots of acinar cell lysates using the ENLITEN luciferase/luciferin reagent (Promega catalog no. FF2021).

pancreatic NF-κB = experiment: Imaging pancreatic NF-κB bioluminescence in vivo (AAV6-NF-κB-luciferase); set-up: species or system mouse; details: RC-infused mice, 4 hr after surgery
Protocol: Imaging pancreatic NF-κB bioluminescence in vivo. An AAV6-NF-κB-luciferase reporter was constructed, expanded in HEK293 cells, and purified as previously described^18-20,39. A volume of 100 μl of virus (10^12 GCP/ml) was infused into the pancreaticobiliary duct at a rate of 10 μl/min using the same technique of RC infusion described above and recently published^21,39. After a 5-week recovery from the surgery, mice underwent PEP induction with or without FK506 treatment. At varying time points after the surgery, ranging from 2 to 36 hr, bioluminescence signals were obtained by first giving a subcutaneous injection of luciferin (150 μg/g body weight) in the scruff of the neck 15 min before the start of imaging. The mice were briefly anesthetized with isoflurane and placed in the supine position in a bioluminescent imaging chamber (IVIS spectrum imager; Perkin Elmer, Waltham, Mass.) for 3-10 min. Average pixel intensity was measured from a pancreatic region of interest (in the upper abdomen). Raw time points from each mouse were normalized to its individual baseline intensity at time zero.

pancreas = experiment: Intra-ductal RC infusion (PEP model) in mice: histological severity, serum amylase; type: in vivo, mouse
Description: Intra-ductal RC infusion in mice. The procedure for retrograde infusion into the CBD and pancreatic duct has been described before^14. Briefly, Swiss Webster mice were anesthetized with isoflurane. A midline incision was made to reveal the abdominal cavity. The duodenum was flipped to reveal its distal side and held in place by ligatures. […] needle was inserted through the anti-mesenteric aspect of the duodenum to cannulate the CBD. A small bull dog clamp was applied to the distal CBD (near the duodenum) to prevent back flow of the infusate into the duodenal lumen and to hold the cannula in place. A larger bull dog clamp was applied to the proximal CBD (near the liver) to prevent infusion into the liver and thus to direct flow to the pancreatic duct. Total volumes of 50-100 μl of iohexol, iopamidol, or normal saline (NS) were infused at 10-20 μl per min for 5 min using a P33 perfusion pump (Harvard Apparatus, Holliston, Mass.). Upon completion of the infusion, the bull dog clamps were released. The exterior abdominal wound was closed using 7 mm wound clips, and a single injection of buprenorphine (0.075 mg/kg) was given immediately after the surgery. Mice recovered on a heating pad for 30 min after the procedure. They were given free access to food and water after the surgery. Pancreas tissue preparation, histological grading, and serum amylase. The pancreas, duodenum, and spleen were fixed at room temperature for 24 hr in 4% paraformaldehyde. Paraffin-embedded sections were stained with hematoxylin an eosin (HE) and graded using a 20× objective over 10 separate fields in a blinded fashion. Pancreas tissue was graded for edema, inflammatory infiltrate, and necrosis as described by Wildi et al.^67. Whole blood samples were centrifuged at 1500×g for 5 min at 4° C. Serum amylase was measured using a Phadebas kit (Amersham Pharmacia, Rochester N.Y.) as previously described^68.

NRK-52E renal cell line = details: long incubation (4 hr); cited from earlier work

NCCOB(c1ccccc1)c1ccccc1 [2-APB]
effect on RC-induced NF-κB-luciferase levels (NF-κB): reduced | effect on RC (12%)-induced acinar cell injury (PI uptake) (primary acinar cells): prevented | effect on RC (6%)-induced NFAT-luciferase activity [1]: prevented | effect on RC (25%)-induced Ca^2+ signals (AR42J cells): prevented | reduction of RC-induced NFAT-luciferase rise [2]: 47%

CC(=O)OCOC(=O)CN(CC(=O)OCOC(C)=O)c1ccc(C)cc1OCCOc1cc(-c2c3cc(F)c(=O)cc-3oc3cc(OCOC(C)=O)c(F)cc23)ccc1N(CC(=O)OCOC(C)=O)CC(=O)OCOC(C)=O [Fluo-4AM]
Kd [3]: 300 nM

CCCCCCCCCCC[C@@H](C[C@@H]1OC(=O)[C@H]1CCCCCC)OC(=O)[C@H](CC(C)C)NC=O [Orlistat]
effect on activation of NF-κB with RC (NF-κB; Orlistat pretreatment (50-100 μM), RC 16%): did not significantly reduce

CC(=O)N(CC(O)CO)c1c(I)c(C(=O)NCC(O)CO)c(I)c(C(=O)NCC(O)CO)c1I (centres unmarked) [RC, iohexol]
propidium iodide (PI) uptake (primary acinar cells; RC exposure for 6 hr): concentration-dependent increase | expression of GADD45B [4]: upregulated | expression of IL-1β [4]: upregulated | expression of IL-6 [4]: upregulated | amplitude of Ca^2+ signal above baseline [5]: 400% | ATP levels (pancreatic acinar cells): depletion of ATP levels | peak in pancreatic NF-κB luciferase compared to NS sham (pancreatic NF-κB): 13 fold | severity of pancreatitis at pH 6 compared to pH 7 (pancreas; RC buffered with 10 mM HEPES, pH clamped at 6): no increased severity of pancreatitis | increase in histological severity above the intra-ductal NS sham control (pancreas; intraductal RC at doubled rate and volume, pancreatic head 24 hr after procedure): 59% | serum amylase increase (pancreas; intraductal RC, 6 hr post-procedure): at least 50%

COc1ccc2c(c1)CC[C@@H]1[C@@H]2CC[C@]2(C)[C@@H](NCCCCCCN3C(=O)C=CC3=O)CC[C@@H]12 [U73122]
effect on RC-induced NF-κB-luciferase levels (NF-κB): reduced | effect on RC (12%)-induced acinar cell injury (PI uptake) (primary acinar cells): prevented | effect on RC (6%)-induced NFAT-luciferase activity [1]: prevented | effect on RC (25%)-induced Ca^2+ signals (AR42J cells): prevented

C[C@H](O)C(=O)Nc1c(I)c(C(=O)NC(CO)CO)c(I)c(C(=O)NC(CO)CO)c1I [iopamidol]
NF-κB-luciferase on exposure to radiocontrast (NF-κB; AR42J cells, 6 hr): induced NF-κB activation in a concentration-dependent manner | calcineurin/NFAT activation on exposure to radiocontrast ([1]; AR42J cells): induced NFAT activation in a concentration-dependent manner | induction of pancreatitis by intraductal infusion (histological severity, serum amylase, serum IL-6) (pancreas; iopamidol (Isovue 300) compared with iohexol, 24 hr): similar; also recorded: induces pancreatitis

O=C(NCC(O)CO)c1c(I)c(C(=O)NCC(O)CO)c(I)c(N(CCO)C(=O)CO)c1I (centres unmarked) [ioversol]
baseline cytosolic Ca^2+ levels (NRK-52E renal cell line): caused a slow, globalized increase in baseline cytosolic Ca^2+ levels

OC[C@@H](O)[C@@H](O)[C@H](O)[C@H](O)CO [mannitol]
NF-κB activation under hyperosmolar control (NF-κB; mannitol at concentrations equimolar to RC): failed to cause an increase
